Experimental data from patent US9981963B2, “3-(1H-pyrazol-4-yl)-1H-pyrrolo[2,3-c]pyridine derivatives as NIK inhibitors” (Janssen Pharmaceutica NV, priority 2013, dated 2018).

How the values were obtained:
[1] = biological target: T1, Recombinant Human NF-kappaB-inducing Kinase (NIK/MAP3K14) (Homo sapiens (Human), UniProt Q99558); assay: Biological Assay A2: inhibition of auto-phosphorylation of recombinant human NIK/MAP3K14 (AlphaScreen); type: biochemical; settings: 25 microM ATP, 0.2 nM GST-tagged NIK/MAP3K14, 1 h at 25° C., averaged values, read-out: Alpha-Screen IC50
T1 sequence (Q99558 whole entry): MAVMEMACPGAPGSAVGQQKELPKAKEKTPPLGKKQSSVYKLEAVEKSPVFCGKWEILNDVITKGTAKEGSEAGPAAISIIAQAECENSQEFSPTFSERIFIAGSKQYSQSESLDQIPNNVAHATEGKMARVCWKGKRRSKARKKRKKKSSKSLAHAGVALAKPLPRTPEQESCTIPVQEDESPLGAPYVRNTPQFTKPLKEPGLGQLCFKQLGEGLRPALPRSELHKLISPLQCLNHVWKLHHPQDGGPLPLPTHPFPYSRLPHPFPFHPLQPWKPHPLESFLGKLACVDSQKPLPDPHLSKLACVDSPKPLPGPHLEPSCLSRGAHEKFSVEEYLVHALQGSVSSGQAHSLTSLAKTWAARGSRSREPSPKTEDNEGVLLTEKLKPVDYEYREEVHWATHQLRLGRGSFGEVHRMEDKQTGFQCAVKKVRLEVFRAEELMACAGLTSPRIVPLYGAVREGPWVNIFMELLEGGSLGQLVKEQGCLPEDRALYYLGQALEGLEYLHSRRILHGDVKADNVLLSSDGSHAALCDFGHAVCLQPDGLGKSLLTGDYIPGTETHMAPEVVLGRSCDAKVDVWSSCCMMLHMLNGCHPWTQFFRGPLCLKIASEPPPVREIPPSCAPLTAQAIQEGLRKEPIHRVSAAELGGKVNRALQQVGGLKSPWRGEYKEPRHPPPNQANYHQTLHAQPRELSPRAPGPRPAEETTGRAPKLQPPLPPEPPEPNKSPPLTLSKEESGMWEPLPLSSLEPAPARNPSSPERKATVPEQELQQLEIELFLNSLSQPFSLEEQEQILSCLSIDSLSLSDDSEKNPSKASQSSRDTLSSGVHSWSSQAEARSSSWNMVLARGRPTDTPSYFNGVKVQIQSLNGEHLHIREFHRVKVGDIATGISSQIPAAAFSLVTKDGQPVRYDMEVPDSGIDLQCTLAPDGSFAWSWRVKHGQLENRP
Description: Inhibition of Auto-phosphorylation of Recombinant Human NF-kappaB-inducing Kinase (NIK/MAP3K14) Activity (AlphaScreen®)
NIK/MAP3K14 auto-phosphorylation activity was measured using the AlphaScreen® (αscreen) format (Perkin Elmer). All compounds tested were dissolved in dimethyl sulfoxide (DMSO) and further dilutions were made in assay buffer. Final DMSO concentration was 1% (v/v) in assays. Assay buffer was 50 mM Tris pH 7.5 containing 1 mM EGTA (ethylene glycol tetraacetic acid), 1 mM DTT (dithiothreitol), 0.1 mM Na3VO4, 5 mM MgCl2, 0.01% Tween® 20. Assays were carried out in 384 well Alphaplates (Perkin Elmer). Incubations consisted of compound, 25 microM Adenosine-5′-triphosphate (ATP), and 0.2 nM NIK/MAP3K14. Incubations were initiated by addition of GST-tagged NIK/MAP3K14 enzyme, carried out for 1 h at 25° C. and terminated by addition of stop buffer containing anti-phospho-IKK Ser176/180 antibody. Protein A Acceptor and Glutathione-Donor beads were added before reading using an EnVision® Multilabel Plate Reader (Perkin Elmer). Signal obtained in the wells containing blank samples was subtracted from all other wells and IC50's were determined by fitting a sigmoidal curve to % inhibition of control versus Log10 compound concentration.

L-363 cells = assay: Biological Assay C: antiproliferative activity on L-363 cells (CellTiter-Glo); type: cell-based; settings: Homo sapiens, 72 hr of treatment, averaged values
Description: (§1) Determination of Antiproliferative Activity on LP-1, L-363 and JJN-3 Cells
(§2) All compounds tested were dissolved in DMSO and further dilutions were made in culture medium. Final DMSO concentration was 0.3% (v/v) in cell proliferation assays. Viability was assessed using CellTiter-Glo cell viability assay kit (Promega). The human LP-1, L-363 and JJN-3 cells (DSMZ) were cultured in RPMI 1640 medium supplemented with 2 mM L-glutamine, and 10% fetal calf serum (PAA). Cells were routinely kept as suspension cells at 37° C. in a humidified 5% CO2 atmosphere. Cells were passaged at a seeding density of 0.2×10^6/ml twice a week. Cells were seeded in black tissue culture treated 96-well plates (Perkin Elmer). Densities used for plating ranged from 2,000 to 6,000 cells per well in a total volume of 75 μl medium. After twenty four hours, drugs and/or solvents were added (25 μl) to a final volume of 100 μl. Following 72 hr of treatment plates were removed from the incubator and allowed to equilibrate to room temperature for approx 10 min. 100 μl CellTiter-Glo reagent was added to each well that was then covered (Perkin Elmer Topseal) and shaken on plate shaker for 10 min. Luminescence was measured on a HTS Topcount (Perkin Elmer). Within an experiment, the results for each treatment were the mean of 2 replicate wells. For initial screening purposes, compounds were tested using a 9 point dilution curve (serial 1:3 dilutions). For each experiment, controls (containing no drug) and a blank incubation (containing cells read at the time of compound addition) were run in parallel. The blank value was subtracted from all control and sample values. For each sample, the mean value for cell growth (in relative light units) was expressed as a percentage of the mean value for cell growth of the control.

LP-1 cells = assay: Biological Assay C: antiproliferative activity on LP-1 cells (CellTiter-Glo); type: cell-based; settings: Homo sapiens, 72 hr of treatment, averaged values
Description: as §1, §2

[2] = biological target: T1, Recombinant Human NF-kappaB-inducing Kinase (NIK/MAP3K14); assay: Biological Assay A: inhibition of recombinant human NIK/MAP3K14 activity (MSD, MBP substrate); settings: 25 μM ATP, 10 nM NIK/MAP3K14, 1 h at 25° C.; averaged over all measurements on all batches; read-out: Biochemical (MSD MBP) IC50
Description: Inhibition of Recombinant Human NF-kappaB-inducing Kinase (NIK/MAP3K14) Activity
Assay buffer was 50 mM Tris pH 7.5 containing 1 mM EGTA (ethylene glycol tetraacetic acid), 1 mM DTT (dithiothreitol), 0.1 mM Na3VO4, 5 mM MgCl2, 0.01% Tween® 20. Assays were carried out in 384 well Mesoscale high binding plates which had been coated with myelin basic protein (MBP) and blocked with bovine serum albumin to prevent non-specific protein binding. All compounds tested were dissolved in dimethyl sulfoxide (DMSO) and further dilutions were made in assay buffer. Final DMSO concentration was 1% (v/v) in assays. Incubations consisted of compound (1% DMSO in control and blank wells), 25 μM Adenosine-5′-triphosphate (ATP), and 10 nM NIK/MAP3K14 substituting enzyme with buffer in the blank wells. Incubations were carried out for 1 h at 25° C. and were followed by washing and sequential incubation with rabbit anti-phospho-MBP and anti-rabbit Ig Sulfotag antibody before reading bound Sulfotag on a Mesoscale Discovery. Signal obtained in the wells containing blank samples was subtracted from all other wells and IC50's were determined by fitting a sigmoidal curve to % inhibition of control versus Log10 compound concentration.

[3] = system: P-IKKα levels in L363 cells; assay: Biological Assay B: effect of compounds on P-IKKα levels in L363 cells; type: cell-based; settings: Homo sapiens, L-363; L363 cells with BAFF, 2 hr treatment; averaged values; read-out: IKKα Cellular IC50
Description: Effect of Compounds on P-IKKα Levels in L363 Cells
All compounds tested were dissolved in DMSO and further dilutions were made in culture medium. Final DMSO concentration was 1% (v/v) in cell assays. The human L363 cells (ATCC) were cultured in RPMI 1640 medium supplemented with GlutaMax and 10% fetal calf serum (PAA). Cells were routinely maintained at densities of 0.2×10^6 cells per ml-1×10^6 cells per ml at 37° C. in a humidified 5% CO2 atmosphere. Cells were passaged twice a week splitting back to obtain the low density. Cells were seeded in 96 well plates (Nunc 167008) at 2×10^6 per ml media in a volume of 75 μl per well plus 25 μl 1 μg/ml recombinant human B-cell activating factor (BAFF/BLyS/TNFSF13B). Seeded cells were incubated at 37° C. in a humidified 5% CO2 atmosphere for 24 hr. Drugs and/or solvents were added (20 μl) to a final volume of 120 μl. Following 2 hr treatment plates were removed from the incubator and cell lysis was achieved by the addition of 30 μl 5× lysis buffer followed by shaking on a plate shaker at 4° C. for 10 min. At the end of this incubation lysed cells were centrifuged at 800×g for 20 min at 4° C. and the lysate was assessed for P-IKKα levels by sandwich immuno-assay carried out in anti-rabbit antibody coated Mesoscale plates. Within an experiment, the results for each treatment were the mean of 2 replicate wells. For initial screening purposes, compounds were tested using an 8 point dilution curve (serial 1:3 dilutions). For each experiment, controls (containing MG132 and BAFF but no test drug) and a blank incubation (containing MG132 and BAFF and 10 μM ADS125117, a test concentration known to give full inhibition) were run in parallel. The blank incubation value was subtracted from all control and sample values. To determine the IC50 a sigmoidal curve was fitted to the plot of % inhibition of control P-IKKα levels versus Log10 compound concentration.

JJN-3 cells = assay: Biological Assay C: antiproliferative activity on JJN-3 cells (CellTiter-Glo); type: cell-based; settings: Homo sapiens, 72 hr of treatment, averaged values
Description: as §1, §2

Row | SMILES | IC50 [1] | IC50 [2] | IC50 [3] | EC50 (L-363 cells) | EC50 (LP-1 cells) | EC50 (JJN-3 cells)
1 | CC(C)Cn1cc(-c2cn[nH]c2)c2cc(C#CC(C)(C)O)ncc21 [Compound 21] | 25 nM | 55 nM | 119 nM | 427 nM | 1120 nM | 629 nM
2 | CC(C)(O)C#Cc1cc2c(-c3cn[nH]c3)cn(C3CCN(CC(F)(F)F)CC3)c2cn1 [Compound 35] | 23 nM |  |  | 439 nM | 2670 nM | 820 nM
3 | CC(C)(O)C#Cc1cc2c(-c3cn[nH]c3)c[nH]c2cn1 [Compound 1] | 53 nM | 60 nM | 736 nM | 6980 nM | > 30000 nM | 3340 nM
4 | CC(C)(O)C#Cc1cc2c(-c3cn[nH]c3)cn(CCC(C)(C)O)c2cn1 [Compound 20] | 30 nM | 29 nM | 187 nM | 2260 nM | > 30000 nM | 2650 nM
5 | CC(C)(O)C#Cc1cc2c(-c3cn[nH]c3)cn(CCO)c2cn1 [Compound 12] | 22 nM | 47 nM | 185 nM | 2450 nM | 8500 nM | 1500 nM
6 | CCn1cc(-c2c[nH]nc2C#N)c2cc(C#CC(C)(C)O)ncc21 [Compound 31] | 35 nM | 9 nM | 214 nM | 3940 nM | 4900 nM | 2380 nM
7 | COCCCn1cc(-c2cn[nH]c2)c2cc(C#CC(C)(C)O)ncc21 [Compound 18] | 41 nM | 45 nM | 167 nM | 2540 nM | 6820 nM | 1870 nM
8 | CC(C)(O)C#Cc1cc2c(-c3cn[nH]c3)cn(C3CCN(CCF)CC3)c2cn1 [Compound 36] | 63 nM |  |  | 565 nM | 9590 nM | 1620 nM
9 | CCn1cc(-c2cn[nH]c2)c2cc(C#CC(C)(C)O)ncc21 [Compound 9] |  | 9 nM | 89 nM | 553 nM | 3060 nM | 526 nM
10 | CC(C)(O)C#Cc1cc2c(-c3cn[nH]c3)cn(C3CCC(CO)CC3)c2cn1 (stereo not shown) [Compound 29] | 4 nM |  | 632 nM | 2430 nM | 27200 nM | 4170 nM
11 | CC(C)(O)C#Cc1cc2c(-c3cn[nH]c3)cn(S(=O)(=O)Cc3ccccc3)c2cn1 [Compound 27] | 290 nM |  |  |  |  | 
12 | CC(C)CS(=O)(=O)n1cc(-c2cn[nH]c2)c2cc(C#CC(C)(C)O)ncc21 [Compound 26] | 141 nM |  |  | 3330 nM | 5020 nM | 3870 nM
13 | CC(C)(O)C#Cc1cc2c(-c3cn[nH]c3)cn(CC(F)(F)F)c2cn1 [Compound 28] | 43 nM |  | 338 nM | 1020 nM | 7380 nM | 1530 nM

Second part, led by results:

Row | IC50 [1] | IC50 [2] | IC50 [3] | SMILES | EC50 (L-363 cells) | EC50 (LP-1 cells) | EC50 (JJN-3 cells)
14 | 14 nM |  |  | CCn1cc(-c2cn[nH]c2)c2cc(C#CC(C)(O)C3CC3)ncc21 (single isomer, unassigned) [Compound 49] | 861 nM | 1700 nM | 1300 nM
15 | 38 nM |  |  | [2H]c1n[nH]c([2H])c1-c1cn(CC)c2cnc(C#CC(C)(C)O)cc12 [Compound 40] | 260 nM | 1950 nM | 547 nM
16 | 63 nM |  |  | [2H]c1n[nH]c([2H])c1-c1cn([C@H]2CCN(CCC(F)(F)F)C2)c2cnc(C#CC(O)(C([2H])([2H])[2H])C([2H])([2H])[2H])cc12 [Compound 42] | 1030 nM | 2670 nM | 2220 nM
17 | 14 nM |  |  | CCn1cc(-c2cn[nH]c2)c2cc(C#CC(C)(O)c3cc(C)on3)ncc21 (stereo not shown) [Compound 48] | 350 nM | 6090 nM | 621 nM
18 | 111 nM |  |  | [2H]C([2H])([2H])C(O)(C#Cc1cc2c(-c3c[nH]nc3Cl)cn(C3CCN(C)CC3)c2c(C)n1)C([2H])([2H])[2H] [Compound 45] | 277 nM | 1450 nM | 415 nM
19 | 79 nM |  |  | CN1CCC(n2cc(-c3c[nH]nc3Cl)c3cc(C#CC(C)(C)O)ncc32)CC1 [Compound 41] | 478 nM | 6110 nM | 1310 nM
20 | 47 nM |  |  | CCn1c(C#N)c(-c2cn[nH]c2)c2cc(C#CC(C)(C)O)ncc21 [Compound 39] | 3920 nM | 8000 nM | 4610 nM
21 | 44 nM |  |  | [2H]c1n[nH]c([2H])c1-c1cn(C2CCN(C3CC3)CC2)c2cnc(C#CC(O)(C([2H])([2H])[2H])C([2H])([2H])[2H])cc12 [Compound 43] | 127 nM | 976 nM | 354 nM
22 | 84 nM |  |  | [2H]c1n[nH]c([2H])c1-c1cn(C2CCN(C)CC2)c2c(C)nc(C#CC(O)(C([2H])([2H])[2H])C([2H])([2H])[2H])cc12 [Compound 44] | 269 nM | 1540 nM | 391 nM
23 | 274 nM |  |  | CCn1cc(-c2c[nH]nc2NC)c2cc(C#CC(C)(C)O)ncc21 [Compound 37] | 4910 nM | > 30000 nM | 5660 nM
24 | 13 nM |  |  | CCn1cc(-c2c[nH]nc2Cl)c2cc(C#CC(C)(C)O)ncc21 [Compound 38] | 1320 nM | 3200 nM | 1660 nM
25 | 13 nM |  |  | CCn1cc(-c2cn[nH]c2)c2cc(C#CC(C)O)ncc21 (stereo not shown) [Compound 46] | 343 nM | 709 nM | 530 nM
